Where “and” joins values, the source holds several entries; their conditions need not be identical. Equal entries are not always repeated.
Assays:
[1] = Kinetic permeation assay with infinite dosage using vertical Franz diffusion cells; type: in vitro ADME, pig; conditions: infinite dose 300 µL in propylene glycol (DS 3%, IBU 1%, LIDO 2%, CAF 1% w/v); for Papp / AUC / Cmax: female, white/landrace, pig; for Papp / AUC / Cmax / J (flux) / AUC (%): mean ± SD; for Papp / J (flux): n = 3; for Papp: read-out: Kp (permeability coefficient) (converted); for AUC / Cmax: receptor fluid; for AUC: read-out: AUC (area under the curve); for Cmax: read-out: Cmax (maximum concentration); for Kin. of release (best-fitting kinetic model): up to 30 h; for AUC (%): percentage release
Method: (§1) A porcine skin membrane was employed for both the permeation and penetration assays. […] The skin was provided by the Department of Cardiology of the Hospital Clinic (Barcelona, Spain). Dorsal unboiled skin (female white/landrace pigs) was prepared: the bristles were removed (A5 Clipper 78005-500, Oster professional, McMinnville, OR, USA) and dermatomed (Dermatome GA630, Aesculap, Tuttlingen, Germany) at 500 ± 50 μm thick. Thickness was verified with a digital micrometer 40EX (Mahr, Göttingen, Germany). Skin biopsies were cut into discs with 2.5 cm diameter. The skin discs were stored until the experiment (at −20 °C).
The kinetic diffusion assay was conducted using a Vision Microette (Vision G2 V14.1) with an Autosampler and an Autofill Collector (Hanson Research, Chatworths, CA, USA) automated vertical diffusion cell (7 mL acceptor chamber, and surface area of application of 1.77 cm^2).
The receptor fluid (RF) used was aqueous buffer solution of PBS in the case of DS, IBU, and CAF, and NaH2PO4 (0.05 M, pH = 7) in the case of LIDO. Receptor fluid was continuously stirred with magnetic beads at 700 rpm to keep the contents of the receptor chamber homogenous. The system was thermostatted at 43 ± 1 °C to provide a skin surface temperature of 32 ± 1 °C.
Once TEWL was measured, 300 μL (infinite dose) of the four active solutions was applied in triplicate to each Franz cell (Hanson Research, Chatworths, CA, USA) and donor compartment was sealed to donor chamber to avoid evaporation. Samples (700 µL) were collected at specific times (15 min, 30 min, 1 h, 2 h, 4 h, 6 h, 10 h, 20 h, and 30 h), and automatically passed into the corresponding vial. The same volume of receptor fluid was automatically replaced with fresh solution at each sampling. The content of receptor samples was diluted in 2 mL graduated flasks and filtered with a 0.45 µm nylon filter (Cameo, Sigma-Aldrich, St Louis, MO, USA) previous analyzed with a high-performance liquid chromatography-diode array detector (HPLC-DAD) (Section […]). The kinetics of penetration were determined, simulating the drug elimination in the body.
The cumulative amount of the active pharmaceutical ingredient (API) per surface area (Qn, µg/cm^2) was obtained for each replicate cell to calculate the release of the four APIs. The equation used to determine the cumulative amount of API in the receptor fluid was the following Equation (1):(1) Qn= Cn×Vc+ ∑i=1n−1Ci×Vs/A where Qn is the cumulative amount of API released at time n (μg/cm^2); Cn is the concentration of active ingredient in the sample (μg/mL); Vc is the volume of the vertical diffusion cell; ∑i=1n−1 Ci is the sum of the concentrations of API (µg/mL) determined at sampling intervals 1 through n − 1; Vs is the sample volume and A is the surface area of the sample.
The percentage of cumulative amount of API permeated over time was calculated by the following Equation (2):(2) % Release API= Qn/Total amount of API applied×100
Experimental data of cumulative amount (Qn and % Release API) were plotted versus time or its square root ( t ) to obtain the API absorption and penetration kinetics. Different mathematical model (Zero-order, First-order and Higuchi) were evaluated with the non-linear regression software STATGRAPHICS plus 5 (Statgraphics Technologies, Inc., The Plains, VA, USA). The best-fitting model was selected according to the highest correlation coefficient value (r^2) and it was possible to calculate other parameters, such as flux (J), the permeability coefficient (Kp), lag time (Tl), the maximum concentration (Cmax), the maximum time (tmax), and the area under the curve (AUC).

[2] = Penetration assay with finite dosage using vertical Franz diffusion cells; type: in vitro ADME, pig; conditions: 24 h; for % API detected in dermis (D) / % API detected in epidermis (E) / % API detected in receptor fluid (RF) / % API detected in stratum corneum (SC): finite dose 20 µL in propylene glycol, normalized amount, mean ± SD, n = 3; for % API total permeation (Perm): sum of epidermis, dermis and receptor fluid, finite dose 20 µL
Method: as §1
OECD guidelines and the published opinions of the Scientific Committee on Cosmetic Products and Non-Food Products (SCCS) were adhered in the penetration protocol. The excised pig skin was placed in a static Franz diffusion cell (Lara Spiral, Couternon, France) (1.86 cm^2 and 3 mL) with the dermis side facing the acceptor chamber. The receptor chamber was filled with receptor fluid. The receptor fluid was the same used in the kinetic assay (Section 2.4). Air bubbles entrapped below the skin were carefully removed and the assembled cells were deposited in a temperature-regulated water bath (Telesystem HP 15, H+P Labortechnik GmgH, Oberschleissheim, Germany) on top of a water-resistant magnetic stirring plate (Variomag 15 and Telemodul, H+P Labortechnik GmgH, Oberschleissheim, Germany). The homogeneity of receptor fluid was maintained by continuously stirring at 700 rpm. The system was thermostatted at 43 ± 1 °C to provide a skin surface temperature of 32 ± 1 °C.
The integrity and permeability of membranes were evaluated with the trans-epidermal water loss (TEWL) value as detailed in Section 2.3.
The finite assay protocol was conducted as described in previous studies. Briefly, 20 µL of each API solution was applied to the skin surface in the donor chamber (n = 3). According to the OECD methodology used, penetration studies were performed for 24 h. After the exposure time, the receptor fluid of all the membranes was collected to transfer to a 5 mL volumetric flask. The remaining API solution was removed from skin surface with specific washing procedure (W). Stratum corneum layers were obtained by tape stripping protocol with adhesive tape (D-Squame, Cuderm Corporation, Dallas, TX, USA) applied under controlled pressure (80 g/cm^2). Viable epidermis (E) and the dermis (D) were separated after heating the skin at 80 °C for several seconds. All samples were extracted with adequate solvent (Table 1) and filtered with a 0.45 µm Nylon filter (Cameo, Sigma-Aldrich, St. Louis, MO, USA) before HPLC quantification (Section 2.6).
The amount permeated in the skin was considered the sum of that in the epidermis, dermis, and receptor fluid. […]

Cn1c(=O)c2c(ncn2C)n(C)c1=O [Caffeine, caffeine]
Papp [1]: 0.0242 ×10⁻⁶ cm/s | AUC [1]: 72.8 ± 32.6 µg·h/mL | Cmax [1]: 13900 ± 1590 ng/mL | J (flux) [1]: 0.86 ± 0.07 µg/cm^2/h | Kin. of release (best-fitting kinetic model) [1]: Ord 0 | AUC (%) [1]: 4.55 ± 3.31% | % API detected in dermis (D) [2]: 0.55 ± 0.09% | % API detected in epidermis (E) [2]: 0.55 ± 0.23% | % API detected in receptor fluid (RF) [2]: 3.62 ± 1.75% | % API detected in stratum corneum (SC) [2]: 3.11 ± 2.33% | % API total permeation (Perm) [2]: 4.72 ± 1.87%

O=C(O)Cc1ccccc1Nc1c(Cl)cccc1Cl [Diclofenac sodium]
Papp [1]: 0.0442 ×10⁻⁶ cm/s | AUC [1]: 168 ± 38.5 µg·h/mL | Cmax [1]: 38100 ± 10000 ng/mL | J (flux) [1]: 3.94 ± 0.77 µg/cm^2/h | Kin. of release (best-fitting kinetic model) [1]: Ord 0 | AUC (%) [1]: 15.43 ± 4.41% | % API detected in dermis (D) [2]: 1.41 ± 0.49% | % API detected in epidermis (E) [2]: 5.54 ± 2.41% | % API detected in receptor fluid (RF) [2]: 8.53 ± 3.99% | % API detected in stratum corneum (SC) [2]: 8.08 ± 2.62% | % API total permeation (Perm) [2]: 15.49 ± 6.89%

CC(C)Cc1ccc(C(C)C(=O)O)cc1 (stereo not drawn) [Ibuprofen, ibuprofen]
Papp [1]: 0.0694 ×10⁻⁶ cm/s | AUC [1]: 163 ± 28.3 µg·h/mL | Cmax [1]: 66700 ± 16100 ng/mL | J (flux) [1]: 2.60 ± 0.69 µg/cm^2/h | Kin. of release (best-fitting kinetic model) [1]: Ord 0 | AUC (%) [1]: 38.97 ± 4.56 % | % API detected in dermis (D) [2]: 2.79 ± 0.37% | % API detected in epidermis (E) [2]: 2.92 ± 0.61% | % API detected in receptor fluid (RF) [2]: 53% and 52.68 ± 5.01% | % API detected in stratum corneum (SC) [2]: 11% and 11.06 ± 1.15% | % API total permeation (Perm) [2]: 58.39 ± 6.32%

Source: publication PMC8000447, “Assessment of Finite and Infinite Dose In Vitro Experiments in Transdermal Drug Delivery” (Pharmaceutics, 2021)
